This is an account of results in patent US10039753B2, “Imidazo[4,5-c]quinoline and imidazo[4,5-c][1,5]naphthyridine derivatives as LRRK2 inhibitors” (Pfizer Inc., priority 2015, dated 2018).

Assay [1] concerns the target T1, GST-tagged truncated LRRK2 (Homo sapiens, UniProt Q5S007).
T1 construct: GST-tagged truncated LRRK2 from Invitrogen (Cat # PV4874); GST; purchased Invitrogen PV4874
The assay can be described thus: LRRK2 Assay, Format 2 (Lantha Screen), WT. To be noted: geometric mean of 2-4 determinations unless otherwise indicated (a: >=5; b: single determination). In kind it is biochemical. As for the experimental part:
(§1) LRRK2 kinase activity was measured using Lantha Screen technology from Invitrogen. GST-tagged truncated LRRK2 from Invitrogen (Cat # PV4874) was incubated with a fluorescein-labeled peptide substrate based upon ezrin/radixin/moesin (ERM), also known as LRRKtide (Invitrogen cat # PR8976A), in the presence of a dose response of compound. Upon completion, the assay was stopped and detected with a terbium labeled anti-phospho-ERM antibody (Invitrogen, cat # PR8975A). […] Using Echo acoustic dispensing, 60 nL of compound was transferred to a low volume Corning 384-well assay plate. 3 μL of a working solution of substrate (200 nM LRRKtide, […]) prepared in assay buffer (50 mM HEPES, pH 7.5, 3 mM MgCl2, with 2 mM DTT and 0.01% Brij35 added fresh) was added to the 60 nL compound assay plate. The kinase reaction was started with […] of a working solution of LRRK2 enzyme at a concentration of […]. The final reaction concentrations were 100 nM LRRKtide, […], […] LRRK2 enzyme and a compound dose response with a top dose of 3 mM. The reaction was allowed to progress at room temperature for 30 minutes and then stopped with the addition of […] of detection buffer (20 mM Tris pH 7.6, 0.01% NP-40, 6 mM EDTA with 2 nM terbium labeled anti-phospho-ERM). After an incubation of 1 hour at room temperature, the plate was read on an Envision with an excitation wavelength of 340 nm and a reading emission at both 520 nm and 495 nm. The ratio of the 520 nm and 495 nm emission was used to analyze the data. Inhibition of mutant G2019S LRRK2 (Invitrogen cat # PV4881) was measured in the exact same method. All final concentrations of substrate ATP and enzyme were the same.

For assay [2], the target named is mutant G2019S LRRK2 (Homo sapiens, UniProt Q5S007, G2019S). The assay can be described thus: LRRK2 Assay, Format 2 (Lantha Screen), G2019S mutant. Format: biochemical. Details: purchased Invitrogen PV4881. To be noted: geometric mean of 2-4 determinations unless otherwise indicated (a: >=5; b: single determination); read-out: LRRK2, Format 2 G2019S IC50. The protocol: as §1

The structures appear in SMILES notation. Where a name gives a salt, the structure may show the parent alone.

T1 sequence (Q5S007 970-2527 limits assumed): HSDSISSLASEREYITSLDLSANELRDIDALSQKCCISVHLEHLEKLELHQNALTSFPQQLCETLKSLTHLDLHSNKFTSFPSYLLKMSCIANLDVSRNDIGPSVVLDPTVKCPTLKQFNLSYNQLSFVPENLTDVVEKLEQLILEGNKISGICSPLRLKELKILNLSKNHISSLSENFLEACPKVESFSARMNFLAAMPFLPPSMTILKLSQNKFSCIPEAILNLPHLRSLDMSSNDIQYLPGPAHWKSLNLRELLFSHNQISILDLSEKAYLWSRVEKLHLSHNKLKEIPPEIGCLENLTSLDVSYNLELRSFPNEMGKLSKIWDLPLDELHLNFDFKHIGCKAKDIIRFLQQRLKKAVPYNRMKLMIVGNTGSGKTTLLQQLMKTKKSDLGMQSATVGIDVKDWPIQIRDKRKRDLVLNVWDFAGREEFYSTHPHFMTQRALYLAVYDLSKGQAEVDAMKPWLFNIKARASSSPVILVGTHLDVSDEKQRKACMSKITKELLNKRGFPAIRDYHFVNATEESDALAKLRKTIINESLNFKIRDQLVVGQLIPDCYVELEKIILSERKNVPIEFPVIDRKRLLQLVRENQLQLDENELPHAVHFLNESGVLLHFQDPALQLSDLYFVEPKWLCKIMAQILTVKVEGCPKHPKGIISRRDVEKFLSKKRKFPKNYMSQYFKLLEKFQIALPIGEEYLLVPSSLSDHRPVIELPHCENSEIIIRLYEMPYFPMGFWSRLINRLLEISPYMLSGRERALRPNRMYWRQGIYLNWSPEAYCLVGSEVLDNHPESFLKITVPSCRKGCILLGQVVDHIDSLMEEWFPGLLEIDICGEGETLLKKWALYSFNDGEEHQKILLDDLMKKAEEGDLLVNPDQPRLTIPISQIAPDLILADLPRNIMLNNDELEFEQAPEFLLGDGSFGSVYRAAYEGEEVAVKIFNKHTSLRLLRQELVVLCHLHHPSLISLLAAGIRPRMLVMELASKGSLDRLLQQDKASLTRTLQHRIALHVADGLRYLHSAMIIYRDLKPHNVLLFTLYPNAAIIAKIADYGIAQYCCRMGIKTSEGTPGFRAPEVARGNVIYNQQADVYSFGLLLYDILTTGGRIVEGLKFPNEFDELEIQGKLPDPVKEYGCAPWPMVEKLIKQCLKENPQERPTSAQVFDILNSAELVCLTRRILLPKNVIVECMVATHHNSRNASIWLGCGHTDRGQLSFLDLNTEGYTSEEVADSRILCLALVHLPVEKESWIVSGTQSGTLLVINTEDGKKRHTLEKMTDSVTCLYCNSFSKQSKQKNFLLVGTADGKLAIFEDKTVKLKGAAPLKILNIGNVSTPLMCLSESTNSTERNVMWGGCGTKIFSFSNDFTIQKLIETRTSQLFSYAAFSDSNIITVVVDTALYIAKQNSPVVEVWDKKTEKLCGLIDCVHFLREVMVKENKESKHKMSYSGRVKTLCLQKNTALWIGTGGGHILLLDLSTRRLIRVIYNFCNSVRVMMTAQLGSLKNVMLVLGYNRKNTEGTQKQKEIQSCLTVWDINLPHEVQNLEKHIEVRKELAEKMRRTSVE
Sequence of mutant G2019S LRRK2 (Q5S007 970-2527 G2019S limits assumed): as the sequence (Q5S007 970-2527 limits assumed) above, with G1050S counted along it

Turning to `CCC(F)(F)Cn1c(Cn2cc(C)nn2)nc2cnc3ccc(Cl)cc3c21` [Example 186, 8-chloro-1-(2,2-difluorobutyl)-2-[(4-methyl-1H-1,2,3-triazol-1-yl)methyl]-1H-imidazo[4,5-c]quinoline], the IC50 turned out to be 22.5 nM in assay [1] and 16.4 nM in assay [2].
In the same order, the values of `C[C@@H]1C[C@H](n2c(Cc3cnccn3)nc3cnc4ccc(Cl)cc4c32)CCO1` [Example 249, 8-chloro-1-[(2R,4R)-2-methyltetrahydro-2H-pyran-4-yl]-2-(pyrazin-2-ylmethyl)-1H-imidazo[4,5-c]quinoline, trifluoroacetate salt] are 16.9 nM and 18.6 nM.
Taken in the same sequence, the figures for `C[C@@H]1C[C@H](n2c(Cc3ccccn3)nc3cnc4ccc(Cl)cc4c32)CCO1` [Example 250, 8-chloro-1-[(2R,4R)-2-methyltetrahydro-2H-pyran-4-yl]-2-(pyridin-2-ylmethyl)-1H-imidazo[4,5-c]quinoline, formate salt] were 10.4 nM and 11 nM.
In the same order, the values of `Cc1cnn(Cc2nc3cnc4ccc(C#N)cc4c3n2[C@@H]2CCO[C@H](C)C2)c1` [Example 133, 2-[(4-methyl-1H-pyrazol-1-yl)methyl]-1-[(2R,4R)-2-methyltetrahydro-2H-pyran-4-yl]-1H-imidazo[4,5-c]quinoline-8-carbonitrile] are 7.68 nM and 7.16 nM.
`Cc1cc(Cc2nc3cnc4ccc(Cl)cc4c3n2[C@@H]2CCO[C@H](CF)C2)no1` [Example 221, 8-chloro-1-[(2S,4R)-2-(fluoromethyl)tetrahydro-2H-pyran-4-yl]-2-[(5-methyl-1,2-oxazol-3-yl)methyl]-1H-imidazo[4,5-c]quinoline]: the IC50 in assay [1] came out at 3.19 nM; in assay [2], 2.89 nM.
In the same order, the values of `COc1ccc(Cc2nc3cnc4ccc(C#N)cc4c3n2[C@@H]2CCO[C@H](C)C2)nc1` [Example 96, 2-[(5-Methoxypyridin-2-yl)methyl]-1-[(2R,4R)-2-methyltetrahydro-2H-pyran-4-yl]-1H-imidazo[4,5-c]quinoline-8-carbonitrile] are 6.31 nM and 4.65 nM.
For `Cc1cc(Cc2nc3cnc4ccc(C#N)cc4c3n2[C@H]2CC[C@@H](F)C2)no1` [Example 241, 1-[(1S,3R)-3-fluorocyclopentyl]-2-[(5-methyl-1,2-oxazol-3-yl)methyl]-1H-imidazo[4,5-c]quinoline-8-carbonitrile, formate salt], the half-inhibitory concentration (IC50) was 29.3 nM in assay [1] and 33.5 nM in assay [2].
Taken in the same sequence, the figures for `C[C@@H]1C[C@H](n2c(Cc3cn4ccccc4n3)nc3cnc4ccc(C#N)cc4c32)CCO1` [Example 158, 2-(imidazo[1,2-a]pyridin-2-ylmethyl)-1-[(2R,4R)-2-methyltetrahydro-2H-pyran-4-yl]-1H-imidazo[4,5-c]quinoline-8-carbonitrile, formate salt] were 6.01 nM and 5.22 nM.
Taken in the same sequence, the figures for `Cc1cc(Cc2nc3cnc4ccc(C#N)cc4c3n2[C@@H]2CCN(C)C2)no1` [Example 213, 2-[(5-methyl-1,2-oxazol-3-yl)methyl]-1-[(3R)-1-methylpyrrolidin-3-yl]-1H-imidazo[4,5-c]quinoline-8-carbonitrile, formate salt] were 3.38 nM and 7.03 nM.
Taken in the same sequence, the figures for `C[C@@H]1C[C@H](n2c(Cc3ccncn3)nc3cnc4ccc(C#N)cc4c32)CCO1` [Example 222, 1-[(2R,4R)-2-methyltetrahydro-2H-pyran-4-yl]-2-(pyrimidin-4-ylmethyl)-1H-imidazo[4,5-c]quinoline-8-carbonitrile] were 9.08 nM and 8.59 nM.
Regarding `CCc1nn2cc(Cc3nc4cnc5ccc(C#N)cc5c4n3[C@@H]3CCO[C@H](C)C3)nc2s1` [Example 156, 2-[(2-ethylimidazo[2,1-b][1,3,4]thiadiazol-6-yl)methyl]-1-[(2R,4R)-2-methyltetrahydro-2H-pyran-4-yl]-1H-imidazo[4,5-c]quinoline-8-carbonitrile, formate salt], the values for the concentration for half-maximal inhibition (IC50) in assay [1] and in assay [2] were 4.78 nM and 4.31 nM, respectively.
Turning to `CC(F)(F)Cn1c(Cn2ccc(C3CC3)n2)nc2cnc3ccc(C#N)cc3c21` [Example 225, 2-[(3-cyclopropyl-1H-pyrazol-1-yl)methyl]-1-(2,2-difluoropropyl)-1H-imidazo[4,5-c]quinoline-8-carbonitrile], the IC50 in assay [1] came out at 7.23 nM; in assay [2], 8.7 nM.
On to `C[C@@H]1C[C@H](n2c(Cc3cccnn3)nc3cnc4ccc(Cl)cc4c32)CCO1` [Example 142, 8-chloro-1-[(2R,4R)-2-methyltetrahydro-2H-pyran-4-yl]-2-(pyridazin-3-ylmethyl)-1H-imidazo[4,5-c]quinoline], for which the IC50 in assay [1] stood at 7.11 nM; in assay [2], 5.63 nM.
In the same order, the values of `Cc1cn(Cc2nc3cnc4ccc(C#N)cc4c3n2C2CCCC2(F)F)nn1` (single isomer, unassigned; ent-2) [Example 197, 1-(2,2-difluorocyclopentyl)-2-[(4-methyl-1H-1,2,3-triazol-1-yl)methyl]-1H-imidazo[4,5-c]quinoline-8-carbonitrile, ENT-2] are 12.7 nM and 18.7 nM.
Taken in the same sequence, the figures for `C[C@@H]1C[C@H](n2c(Cc3cc(=O)n4ccccc4n3)nc3cnc4ccc(Cl)cc4c32)CCO1` [Example 164, 2-({8-chloro-1-[(2R,4R)-2-methyltetrahydro-2H-pyran-4-yl]-1H-imidazo[4,5-c]quinolin-2-yl}methyl)-4H-pyrido[1,2-a]pyrimidin-4-one, formate salt] were 5.88 nM and 6.18 nM.
Taken in the same sequence, the figures for `N#CCc1nc2cnc3ccc(Cl)cc3c2n1[C@@H]1CC[C@H](F)C1` (single isomer, unassigned; ent-1) [Example 204, {8-chloro-1-(cis-3-fluorocyclopentyl)-1H-imidazo[4,5-c]quinolin-2-yl}acetonitrile, ENT-1] were 22.8 nM and 35.1 nM.
With `Cc1cn(Cc2nc3cnc4ccc(Cl)cc4c3n2[C@H]2CC[C@@H](F)C2)nn1` (single isomer, unassigned) [Example C55, 8-chloro-1-(cis-3-fluorocyclopentyl)-2-[(4-methyl-1H-1,2,3-triazol-1-yl)methyl]-1H-imidazo[4,5-c]quinoline], the values for the IC50 in assay [1] and in assay [2] were 18.2 nM and 22.7 nM, respectively.
In the same order, the values of `Cc1cc(Cc2nc3cnc4ccc(C#N)cc4c3n2CC(F)F)no1` [Example 228, 1-(2,2-difluoroethyl)-2-[(5-methyl-1,2-oxazol-3-yl)methyl]-1H-imidazo[4,5-c]quinoline-8-carbonitrile] are 46.7 nM and 69.4 nM.
In the same order, the values of `Cc1cc(Cc2nc3cnc4ccc(C#N)cc4c3n2[C@H]2CCCC[C@H]2O)no1` (racemic) [Example 242, 1-(cis-2-hydroxycyclohexyl)-2-[(5-methyl-1,2-oxazol-3-yl)methyl]-1H-imidazo[4,5-c]quinoline-8-carbonitrile, formate salt] are 122 nM and 119 nM.
As for `Cc1cc(Cc2nc3cnc4ccc(C#N)cc4c3n2[C@H]2CC[C@H](O)CC2)no1` [Example 240, 1-(trans-4-hydroxycyclohexyl)-2-[(5-methyl-1,2-oxazol-3-yl)methyl]-1H-imidazo[4,5-c]quinoline-8-carbonitrile, formate salt], the IC50 came out at 51.8 nM in assay [1] and 35.7 nM in assay [2].
Taken in the same sequence, the figures for `Cc1cc(Cc2nc3cnc4ccc(C#N)cc4c3n2[C@@H]2CCC[C@@H]2F)no1` (single isomer, unassigned; ent-2) [Example 147, 1-(cis-2-fluorocyclopentyl)-2-[(5-methyl-1,2-oxazol-3-yl)methyl]-1H-imidazo[4,5-c]quinoline-8-carbonitrile, ENT-2] were 14.5 nM and 22.6 nM.
Turning to `C[C@@H]1C[C@H](n2c(Cc3ccc4nnnn4n3)nc3cnc4ccc(Cl)cc4c32)CCO1` [Example 165, 8-chloro-1-[(2R,4R)-2-methyltetrahydro-2H-pyran-4-yl]-2-(tetrazolo[1,5-b]pyridazin-6-ylmethyl)-1H-imidazo[4,5-c]quinoline], the IC50 in assay [1] was 6.75 nM; in assay [2], 7.44 nM.
In the case of `Cc1cnn(Cc2nc3cnc4ccc(Cl)cc4c3n2[C@@H]2CCO[C@H](C)C2)n1` [Example 103, 8-Chloro-1-[(2R,4R)-2-methyltetrahydro-2H-pyran-4-yl]-2-[(4-methyl-2H-1,2,3-triazol-2-yl)methyl]-1H-imidazo[4,5-c]quinoline], the IC50 worked out at 11.2 nM in assay [1] and 10.6 nM in assay [2].
